The NIST ThermoML archive (doi:10.1016/j.jct.2006.03.003)
Numbers after ± are expanded uncertainties.

Key:
[1] = 298.15 K; 101.33 kPa; Liquid
[2] = xn = mol fraction of the nth substance listed; settings: 298.15 K; 101 kPa; Liquid; x1 = 0.61

mass density [2] | SMILES | mass density [1]
 | CCC(C)=O [butanone] | 799.75 ± 0.29 kg/m3
1516.5 ± 1.8 kg/m3 | COC(F)(F)C(F)(C(F)(F)F)C(F)(F)F [methyl nonafluoroisobutyl ether] + COC(F)(F)C(F)(F)C(F)(F)C(F)(F)F | 
 | CCC(=O)CC [pentan-3-one] | 809.09 ± 0.28 kg/m3
 | CC(C)=O [acetone] | 784.65 ± 0.31 kg/m3
